The target of the assay is His-GST tagged PARG (Homo sapiens, UniProt Q86W56). The assay is described as follows: In vitro PARG assay (TR-FRET). Format: biochemical. The conditions noted are these: 4 pM His-GST tagged PARG, 30 nM Bio PARylated PARP1 substrate, 20 min at room temperature, TR-FRET Em 665/Em 615. How it is done:
The in vitro PARG assay experiment was conducted in a standard 384-well plate with a total volume of 15 µL. To a 384-well plate containing the test compound was added 5 µL of an enzyme reaction mixture (50 mM Tris-HCL pH 7.5, 50 mM KCL, 0.01% Triton X-100, 0.01% BSA, and 4 pM His-GST tagged PARG). The plate was incubated at room temperature for 10 min, and then 5 µL of a substrate mixture (50 mM Tris-HCL pH 7.5, 50 mM KCL, 0.01% Triton X-100, 0.01% BSA, and 30 nM Bio PARylated PARP1) was added to initiate the reaction. The plate was further incubated at room temperature for 20 min, and then 5 µL of a detection reagent was added to terminate the reaction. The detection reagent was prepared from a buffer (50 mM Tris-HCl pH 7.5, 50 mM KCL, 0.01% Triton X-100, and 0.01% BSA), 3 µM compound PDD00017273, 1.5× Mab anti-6HIS XL665 (Cisbio: 61HISXLA), and 1.5× streptavidin terbium cryptate (Cisbio: 610SATLA). The final concentrations of the compound PDD00017273, the 1.5× Mab anti-6HIS XL665 (Cisbio: 61HISXLA), and the 1.5× streptavidin terbium cryptate were 1 µM, 0.5×, and 0.5×, respectively. After incubation in the dark at room temperature for 120 min, TR-FRET signals were measured at Ex 340, Em 665, and Em 615. The ratio for each well was calculated as Em 665/Em 615 (the ratio here corresponds to the ratio of fluorescence signals at the wavelengths).
(In general: In TR-FRET formats the signal depends on donor and acceptor labels being close together.)
Chain of His-GST tagged PARG (Q86W56 whole entry): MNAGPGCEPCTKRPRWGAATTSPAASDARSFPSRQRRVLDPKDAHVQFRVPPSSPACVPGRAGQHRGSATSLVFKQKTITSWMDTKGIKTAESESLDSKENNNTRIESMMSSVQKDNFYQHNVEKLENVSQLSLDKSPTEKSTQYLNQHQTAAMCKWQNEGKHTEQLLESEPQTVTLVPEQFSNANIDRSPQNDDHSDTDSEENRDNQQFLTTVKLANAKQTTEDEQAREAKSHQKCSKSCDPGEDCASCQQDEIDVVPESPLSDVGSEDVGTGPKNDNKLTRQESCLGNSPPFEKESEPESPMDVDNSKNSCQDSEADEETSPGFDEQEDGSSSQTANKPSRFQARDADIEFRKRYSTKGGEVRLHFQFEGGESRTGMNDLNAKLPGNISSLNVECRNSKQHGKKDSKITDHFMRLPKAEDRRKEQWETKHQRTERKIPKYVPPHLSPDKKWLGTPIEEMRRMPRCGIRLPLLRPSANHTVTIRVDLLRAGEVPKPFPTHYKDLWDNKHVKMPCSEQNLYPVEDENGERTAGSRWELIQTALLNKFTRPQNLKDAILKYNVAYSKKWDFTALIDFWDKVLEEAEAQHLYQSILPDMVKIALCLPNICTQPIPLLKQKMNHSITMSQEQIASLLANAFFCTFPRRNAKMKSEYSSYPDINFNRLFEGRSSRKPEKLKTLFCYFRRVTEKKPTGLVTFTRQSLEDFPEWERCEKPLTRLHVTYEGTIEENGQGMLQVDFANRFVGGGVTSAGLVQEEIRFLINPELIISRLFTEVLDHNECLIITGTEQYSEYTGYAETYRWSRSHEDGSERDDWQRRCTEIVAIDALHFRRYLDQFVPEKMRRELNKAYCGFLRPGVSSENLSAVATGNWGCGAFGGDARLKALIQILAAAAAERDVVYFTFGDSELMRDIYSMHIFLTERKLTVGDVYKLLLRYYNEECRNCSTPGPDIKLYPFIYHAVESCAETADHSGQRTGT
As a reminder, the IC50 is the concentration needed to halve the response being measured. High values mean weaker potency, low ones greater potency. The compound `C[C@@H]1CN(c2cc(S(=O)(=O)NC3(C)CC3)cc3c2cnn3-c2nnc(C(F)F)s2)CCN1C(=O)C(C)(C)O` [EVO29469] showed an IC50 of less than 100 nM. In the case of `C[C@@H]1CN(c2cc(S(=O)(=O)NC3(C)CC3)cc3c2cnn3-c2nnc(C(F)F)s2)CCN1C(=O)[C@](C)(O)C(F)(F)F` [EVO29496], the IC50 is less than 100 nM.

Turning to `COC(C)(C)C(=O)N1CCN(c2cc(S(=O)(=O)NC3(C)CC3)cc3c2cnn3-c2nnc(C(F)F)s2)C[C@H]1C` [EVO29503], the IC50 is less than 100 nM. In turn, `CCOC(C)(C)C(=O)N1CCN(c2cc(S(=O)(=O)NC3(C)CC3)cc3c2cnn3-c2nnc(C(F)F)s2)C[C@H]1C` [EVO29507] returned a half-maximal inhibitory concentration (IC50) of less than 100 nM.

For the compound `C[C@@H]1CN(c2cc(S(=O)(=O)NC3(C#N)CC3)cc3c2cnn3-c2nnc(C(F)F)s2)CCN1C(=O)C(C)(C)OC(F)F` [EVO29592], the IC50 is less than 100 nM. Regarding `C[C@@H]1CN(c2cc(S(=O)(=O)NC3(C#N)CC3)cc3c2nnn3-c2nnc(C(F)F)s2)CCN1C(=O)[C@H](O)C(C)(C)C` [EVO29725], the IC50 was in the range of 100 to 500 nM. `CO[C@@H](C(=O)N1CCN(c2cc(S(=O)(=O)NC3(C#N)CC3)cc3c2cnn3-c2nnc(C(F)F)s2)C[C@H]1C)C(C)(C)C` [EVO29736]: the IC50 was less than 100 nM.

`C[C@@H]1CN(c2cc(S(=O)(=O)NC3(C#N)CC3)cc3c2c(F)nn3-c2nnc(C(F)F)s2)CCN1C(=O)[C@H](O)C(C)(C)C` [EVO29757]: the half-maximal inhibitory concentration (IC50) was less than 100 nM.

Consider `C[C@@H]1CN(c2cc(S(=O)(=O)NC3(C#N)CC3)cc3c2c(F)nn3-c2nnc(C(F)F)s2)CCN1C(=O)[C@@](C)(O)C(F)(F)F` [EVO29761], for which the IC50 was less than 100 nM.

The compound `C[C@@H]1CN(c2cc(S(=O)(=O)NC3(C#N)CC3)cc3c2c(F)nn3-c2nnc(C(F)F)s2)CCN1C(=O)[C@](C)(O)C(F)(F)F` [EVO29762] showed an IC50 of less than 100 nM. Regarding `CC(C)(C)[C@@H](O)C(=O)N1CCN(c2cc(S(=O)(=O)NC3(C#N)CC3)cc3c2cnn3-c2nnc(C(F)F)s2)C[C@H]1CF` [EVO29778], the IC50 is less than 100 nM. Turning to `C[C@@H]1CN(c2cc(S(=O)(=O)NC3(C#N)CC3)cc3c2ccn3-c2nnc(C(F)F)s2)CCN1C(=O)[C@H](O)C(C)(C)C` [EVO29788], the IC50 is less than 100 nM. On to `C[C@@H]1CN(c2c(F)c(S(=O)(=O)NC3(C#N)CC3)cc3c2c(F)nn3-c2nnc(C(F)F)s2)CCN1C(=O)[C@H](O)C(C)(C)C` [EVO29792], for which the IC50 was 100 to 500 nM. `C[C@@H]1CN(c2cc(S(=O)(=O)NC3(C)CC3)cc3c2c(F)nn3-c2nnc(C(F)F)s2)CCN1C(=O)[C@H](O)C(C)(C)C` [EVO29798] gave a 50% inhibitory concentration (IC50) of less than 100 nM.

The values are drawn from patent EP4559912A1, “SULFUR-CONTAINING HETEROAROMATIC RING COMPOUND, PHARMACEUTICAL COMPOSITION THEREOF, AND USE THEREOF” (Evopoint Biosciences Co., Ltd., priority 2022, dated 2024).
